Assay in all cases: inhibition of tumour cell growth, NCI panel, 48 h
Assay [1] deals with HCC-2998 colon.
Assay [2] has as its system HCT-116 colon.
Assay [3] has as its system MALME-3M melanoma.
The subject of assay [4] is RXF 393 renal.
Assay [5] has as its system SF-539 CNS.
The subject of assay [6] is SK-MEL-5 melanoma.
In assay [7] the test system is M14 melanoma.
Assay [8] deals with MDA-MB-231 breast.
The subject of assay [9] is PC-3 prostate.
Assay [10] has as its system T-47D breast.

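How tested: cells in 96-well plates exposed to compound for 48 hours at five concentrations. At the GI50, growth is halved. At the TGI there is no net growth.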

Turning to `Nc1ncnc2c1ncn2CCCC(c1ccccc1)P(=O)(O)O` (stereo unspecified), the TGI in assay [1], in [2], in assay [3], in [4], in assay [5] and in assay [6] was > 100 µM throughout.

Regarding `N=c1n(CC(=O)NC23CC4CC(CC(C4)C2)C3)c2ccccc2n1CC(=O)NC12CC3CC(CC(C3)C1)C2`, the TGI is 2.65 µM in assay [1]; 3.46 µM in assay [2]; 3.38 µM in assay [7]; 3.04 µM in assay [3]; 3.17 µM in assay [4]; 3.36 µM in assay [5]. This molecule yielded a TGI in assay [6] of 3.24 µM.

Turning to `O=C(CNc1nccs1)Nn1cnc2ccc(S(=O)(=O)Nc3nccs3)cc2c1=O`, the TGI in assay [1], in assay [2], in [7], in assay [3], in assay [8] and in assay [9] was > 100 µM each time. Further, the TGI in assay [5] is > 100 µM.

Take `Cc1c(-c2coc(-c3ccccc3)n2)c(=O)n(-c2ccccc2)n1C`: the TGI is > 100 µM in [1]; > 100 µM in [2]; > 100 µM in [7]; > 100 µM in [3]; > 100 µM in assay [5]; 61 µM in assay [6].

For the molecule `CO[C@H]1CC[C@]2(C)C3=CC[C@@]4(C)C(CC[C@@H]4C(C)CC[C@@H](C)C(C)C)C(=CCC2C1)O3` (stereo partly specified), the TGI in assay [1], in assay [2], in assay [7], in [3], in assay [4] and in [5] was > 25 µM in each case. Also, in [6], the TGI was > 25 µM.

With `Cc1ccc2n(c1)cc(-c1ccc(/C=N/NC(=N)N/N=C/c3ccc(-c4cn5cc(C)ccc5[n+]4C)cc3)cc1)[n+]2C`, the TGI in assay [1], in assay [2], in assay [7], in assay [8], in [9] and in [5] was > 100 µM throughout. Further, the TGI in [6] and in assay [10] was > 100 µM in each case.

Turning to `C/C(=N\NC(=O)CC#N)C(CN1CCCCC1)C(c1ccccc1)c1c(O)c2ccccc2oc1=O` (stereo unspecified), the TGI in assay [1], in [2], in [7], in [3], in assay [8] and in [9] was > 100 µM throughout. The TGI in assay [5] and in assay [6] was > 100 µM in each case.

Consider `Fc1ccc2[nH]cc(-c3nc(-c4c[nH]c5ccncc45)cs3)c2c1`, for which the GI50 in assay [1] was 1920 nM; in assay [9], 1470 nM; in assay [4], 1480 nM; in assay [5], 1520 nM. For the same molecule, the TGI in [1] was found to be 3.49 µM; in assay [9], 2.99 µM; in assay [4], 2.86 µM; in assay [5] it was 2.88 µM.

With `COc1cc(S(=O)(=O)Nc2ccc(-c3csc(N4C(=O)C(Cl)C4c4cccc(Oc5ccccc5)c4)n3)cc2)ccc1Cl` (stereo unspecified), the TGI in [1] is > 100 µM; in [2] it was > 100 µM; in assay [7], 52.4 µM; in [3] it was > 100 µM; in [9] it was 30.8 µM; in assay [4] it was 15.6 µM. Also, the TGI in [5] was 29.6 µM; in assay [6], > 100 µM; in [10] it was 41.9 µM.

Turning to `Cn1c(=O)c2c(nc3n2CCC(=O)N3CCCCl)n(C)c1=O`, the TGI in assay [1], in [2], in assay [7], in assay [8], in assay [9] and in [6] was > 100 µM each time. In addition, the TGI in assay [10] is > 100 µM.

In the case of `Brc1c2nc3ccccc3nc2n2ccc3ccccc3c12`, the TGI in assay [1], in assay [2], in [7], in [3], in [5] and in [6] was > 100 µM in each case.

As for `Cc1cc(Br)cc(C)c1NC(=O)C(=O)C(C(=O)c1ccncc1)C1OC(=O)c2ccccc21` (stereo unspecified), the TGI in assay [1], in assay [2], in assay [7], in assay [3] and in [4] was > 100 µM in each case.

As to `CCOC(=O)CCC(NC(=O)c1ccc(Nc2nc3cc(C(F)(F)F)ccc3nc2C(=O)OCC)cc1)C(=O)OCC` (stereo unspecified), the TGI in assay [1] is > 100 µM; in assay [2] it was 19.9 µM; in assay [7], 16.9 µM; in assay [8], 34.1 µM; in assay [9], 21.5 µM; in assay [5], 25.2 µM. Also, the TGI in assay [6] stood at 93 µM; in [10] it was 29.7 µM.

As to `N#CNC(=NCc1ccccc1)NCCc1c[nH]c2ccccc12`, the TGI was > 100 µM in assay [1]; > 100 µM in assay [2]; > 100 µM in [7]; > 100 µM in [4]; > 100 µM in [5]; 83.3 µM in [6].

Take `COc1cc(N)c2[nH]c3c(C)ccc(C)c3c2c1`: the TGI in assay [1], in assay [2], in assay [7], in assay [3], in assay [5] and in assay [6] was > 100 µM each time.

For the molecule `COc1cc2c(c(O)c1C)C(=O)CC(c1ccccc1)O2` (stereo unspecified), the TGI in assay [1] is > 100 µM; in assay [2], > 100 µM; in assay [7], > 10 µM; in [3], > 100 µM; in assay [5], > 100 µM; in assay [6], 37.2 µM.

Regarding `COC1=CC(=O)C2C(C1=O)[C@@H]1c3ccccc3OC(C)(C)[C@H]21` (stereo partly specified), the TGI was > 100 µM in [1]; 29.7 µM in assay [2]; 33.8 µM in assay [7]; 34 µM in [3]; 27.1 µM in assay [4]; 58.3 µM in assay [5]. Also, the TGI in assay [6] was determined as 74 µM.

`Cc1ccc(S(=O)(=O)NC(=O)NCCc2ccc(O)c(O)c2)cc1`: the TGI in assay [1], in [2], in assay [7], in [3], in [8] and in [9] was > 100 µM throughout. Moreover, the TGI in assay [4], in assay [5] and in assay [6] was > 100 µM each time.

(Values after PubChem BioAssay (NCI).)
